# Where two headings read alike, the source gives them in different places. Where a SMILES comes first, the peptide text is derived from it.
# Legend:
# [1] = molecular target: T1, staphylococcal V8 protease (Staphylococcus aureus, UniProt P0C1U8); experiment: Cleavage (activation) of PT-1 by purified V8 protease in vitro, followed by analytical RP-HPLC and AU-PAGE; assay type: biochemical, S. aureus; conditions: in a time frame of minutes, fragments consistent with RP-1 and IL-8-like domains
# T1 construct: purchased Sigma Chemical Co
# T1 sequence (P0C1U8 69-336): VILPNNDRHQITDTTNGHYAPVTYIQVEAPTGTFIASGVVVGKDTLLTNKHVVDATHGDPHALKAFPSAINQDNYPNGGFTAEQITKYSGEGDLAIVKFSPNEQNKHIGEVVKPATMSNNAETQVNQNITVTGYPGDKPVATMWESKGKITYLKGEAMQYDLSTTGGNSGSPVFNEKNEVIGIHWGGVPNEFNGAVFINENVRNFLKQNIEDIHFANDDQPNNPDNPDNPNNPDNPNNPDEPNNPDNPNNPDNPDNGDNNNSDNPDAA
# [2] = test system: all organisms except S. aureus (Candida albicans, Salmonella typhimurium, Bacillus subtilis); experiment: Modified radial diffusion assay, test pathogens other than S. aureus; assay type: cell-based; conditions: 5 ug per well, organisms that do not elaborate V8 protease
# Description: (§1) In order to assess the antimicrobial properties of PT-1, a panel of well-characterized test pathogens was used that included S. aureus strains ISP479C and ISP479R as described by Dhawan et al., Infect. Immun. 66:[…] (1998); Candida albicans strains 36082 (ATCC type strain 36082)and 36082R as described by Yeaman et al., Infect. Immun. 64:1379-1384 (1996); Salmonella typhimurium strains m5996s and 14028s as described by Fields et al., Science 243:1059-62 (1989); Yeaman et al., 38th Interscience Conference on Antimicrobial Agents and Chemotherapy (ICAAC), San Diego, Calif., Abstract No. F-170 (1999); and Bacillus subtilis strain ATCC 6633 as described by Yeaman et al., Infect. Immun. 60:1202-1209 (1992), each of which is incorporated herein by reference in its entirety.
# (§2) In order to compare the antimicrobial activities of PT-1 with those of RP-1 against a panel of test pathogens, radial diffusion assay and a microtiter well assay were utilized.
# (§3) Briefly, a modified radial diffusion assay was employed to compare the antimicrobial activities of PT-1 with RP-1 in a solid-phase matrix format. […] The assay plates were then incubated for 18 h at 37° C., after which zones of inhibition (in mm of diameter) were measured and recorded.
# [3] = test system: S. aureus strains ISP479C and ISP479R; assay type: cell-based
# Description: as §1
# A microtiter well assay was also performed as a complement to the radial diffusion assay described above. In this assay, PT-1, RP-1, or V8 protease (Sigma Chemical Co.) were serially diluted from 100 ug (range, 100-0.20 ug/ml) and individually assessed for antimicrobial activity against S. aureus strains ISP479C and ISP479R as described above. In addition, this assay allowed for the evaluation of antimicrobial activities of combinations of PT-1 and V8, in conditions of constant or dynamic dilution of one or both agents. This latter approach enabled the determination of static as well as dynamic fractional inhibitory concentrations (FICs) of PT-1 in the presence and absence of purified V8 protease.
# [4] = test system: S. aureus strains ISP479C and ISP479R; experiment: Modified radial diffusion assay, S. aureus strains; assay type: cell-based; conditions: 5 ug per well, both S. aureus strains, regardless of intrinsic susceptibility or resistance
# Description: as §1, §2, §3
compound,measurement,setting,value
CC[C@H](C)[C@H](NC(=O)[C@H](CS)NC(=O)[C@H](CCC(N)=O)NC(=O)[C@H](CS)NC(=O)[C@H](CCCNC(=N)N)NC(=O)[C@H](CC(C)C)NC(=O)[C@H](CCC(=O)O)NC(=O)[C@H](CCCCN)NC(=O)[C@H](C)N)C(=O)N[C@@H](CCCCN)C(=O)N[C@H](C(=O)N[C@@H](Cc1ccc(O)cc1)C(=O)N[C@@H](CO)C(=O)N[C@@H](CCCCN)C(=O)N[C@@H](CCC(=O)O)C(=O)N[C@@H](C)C(=O)N[C@@H](CC(C)C)C(=O)N[C@@H](Cc1ccc(O)cc1)C(=O)N[C@@H](CCCCN)C(=O)N[C@@H](CCCCN)C(=O)N[C@@H](Cc1ccccc1)C(=O)N[C@@H](CCCCN)C(=O)N[C@@H](CCCCN)C(=O)N[C@@H](CCCCN)C(=O)N[C@@H](CC(C)C)C(=O)N[C@@H](CC(C)C)C(=O)N[C@@H](CCCCN)C(=O)N[C@@H](CO)C(=O)N[C@@H](CC(C)C)C(=O)N[C@@H](CCCCN)C(=O)N[C@@H](CCCNC(=N)N)C(=O)N[C@@H](CC(C)C)C(=O)NCC(=O)O)[C@@H](C)O [PT-1] (H-AKELRCQCIKTYSKEALYKKFKKKLLKSLKRLG-OH; N-terminus and C-terminus assumed),cleavage (activation) on exposure to purified V8 protease,[1],cleaved (activated) into two separate fragments
same,antimicrobial activity compared with RP-1 (zones of inhibition),[2],substantially less antimicrobial activity than RP-1
same,FIC (fractional inhibitory concentration),"[3]; PT-1 with V8 protease, considered synergistic",< 0.5
same,MIC,[3]; co-incubated with V8 protease,3.1 µg/mL
same,increased activity in the presence of purified V8 protease compared to its absence,[3]; with vs without purified V8 protease,≥ 2 fold
same,MIC,[3]; without V8 protease,12.5 µg/mL
same,antimicrobial activity (zones of inhibition),[4],activation and enhanced antimicrobial activity

# From US8592375B2, “Multifunctional context-activated protides and methods of use” (Los Angeles Biomedical Research Institute at Harbor-UCLA …, priority 2002, dated 2013)
